For 32 compounds, IC50 results are on record in patent publication US12581252B2, “Substituted pyrrolo[3,4-b]pyridines as PI3K-α inhibitors” (Relay Therapeutics, Inc., priority 2020, dated 2026).

A value given as a limit tells only on which side of the number the result lay.

One experiment addresses H1047R PIK3CA enzyme (Homo sapiens, UniProt P42336, H1047R). As to the kind of experiment: ADP-Glo Biochemical PIK3CA Kinase Assay. For orientation: In ADP-Glo the light output rises with the ADP produced.
A further experiment is described as follows: cells. Conditions: Homo sapiens, MCF-10A, read-out: MCF10A IC50.

Sequence of H1047R PIK3CA enzyme (P42336 whole entry H1047R): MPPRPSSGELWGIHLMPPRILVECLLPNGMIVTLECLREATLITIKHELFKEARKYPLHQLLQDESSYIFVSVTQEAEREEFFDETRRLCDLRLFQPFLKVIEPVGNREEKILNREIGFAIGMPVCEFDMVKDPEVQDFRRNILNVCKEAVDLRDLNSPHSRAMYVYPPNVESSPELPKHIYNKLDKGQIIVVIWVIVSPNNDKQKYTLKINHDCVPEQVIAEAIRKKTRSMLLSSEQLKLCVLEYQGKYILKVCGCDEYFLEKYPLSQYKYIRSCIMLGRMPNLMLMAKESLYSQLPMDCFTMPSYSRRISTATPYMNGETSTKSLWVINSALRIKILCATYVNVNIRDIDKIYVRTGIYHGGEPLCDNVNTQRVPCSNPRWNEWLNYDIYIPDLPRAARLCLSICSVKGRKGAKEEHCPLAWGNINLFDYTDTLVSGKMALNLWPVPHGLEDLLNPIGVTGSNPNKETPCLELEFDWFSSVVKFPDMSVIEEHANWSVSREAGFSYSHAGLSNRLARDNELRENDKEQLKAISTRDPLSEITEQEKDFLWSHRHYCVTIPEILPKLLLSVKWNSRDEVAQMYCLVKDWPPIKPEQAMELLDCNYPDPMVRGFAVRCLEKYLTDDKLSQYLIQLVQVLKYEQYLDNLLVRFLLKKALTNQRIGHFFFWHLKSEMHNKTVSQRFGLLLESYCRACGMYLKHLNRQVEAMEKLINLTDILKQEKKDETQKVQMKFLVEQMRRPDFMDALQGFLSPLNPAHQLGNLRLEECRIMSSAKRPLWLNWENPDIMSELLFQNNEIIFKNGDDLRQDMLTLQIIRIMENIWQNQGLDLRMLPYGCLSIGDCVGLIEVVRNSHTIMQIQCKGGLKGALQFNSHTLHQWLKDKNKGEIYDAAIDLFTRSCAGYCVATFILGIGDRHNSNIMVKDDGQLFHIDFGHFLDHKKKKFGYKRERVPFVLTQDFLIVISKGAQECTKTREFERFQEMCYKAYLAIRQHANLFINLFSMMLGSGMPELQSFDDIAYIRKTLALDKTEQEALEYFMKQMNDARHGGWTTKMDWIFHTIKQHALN
Sequence of H1047R PIK3CA enzyme (P27986 whole entry partner): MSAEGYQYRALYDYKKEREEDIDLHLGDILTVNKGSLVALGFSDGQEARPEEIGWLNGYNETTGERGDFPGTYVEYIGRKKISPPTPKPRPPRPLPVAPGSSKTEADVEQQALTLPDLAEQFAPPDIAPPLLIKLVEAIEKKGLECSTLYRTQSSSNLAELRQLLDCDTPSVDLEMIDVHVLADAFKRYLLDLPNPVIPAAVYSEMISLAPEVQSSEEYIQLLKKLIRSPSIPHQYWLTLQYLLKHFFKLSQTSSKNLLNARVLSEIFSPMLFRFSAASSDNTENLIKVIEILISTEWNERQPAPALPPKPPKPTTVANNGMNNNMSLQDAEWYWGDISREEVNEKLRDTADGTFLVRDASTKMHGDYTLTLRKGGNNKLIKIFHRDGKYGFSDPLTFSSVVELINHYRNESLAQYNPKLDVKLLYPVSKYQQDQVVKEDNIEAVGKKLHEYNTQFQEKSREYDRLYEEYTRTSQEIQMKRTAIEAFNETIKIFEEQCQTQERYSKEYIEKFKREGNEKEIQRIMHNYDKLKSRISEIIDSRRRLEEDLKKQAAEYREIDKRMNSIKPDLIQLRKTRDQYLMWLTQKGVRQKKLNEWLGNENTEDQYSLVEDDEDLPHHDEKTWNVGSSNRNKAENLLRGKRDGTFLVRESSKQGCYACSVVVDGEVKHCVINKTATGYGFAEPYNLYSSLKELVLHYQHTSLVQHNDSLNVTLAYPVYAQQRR

For orientation: IC50 means the concentration at which inhibition is half-maximal. `O=C(Nc1cc(-c2nc3cnccc3[nH]2)cc2c1C(c1cc(F)ccc1Cl)NC2=O)c1cc(F)cc(C(F)(F)F)c1` (stereo not shown) [Compound I-1025]: the figures for the concentration for half-maximal inhibition (IC50) against H1047R PIK3CA enzyme and in the experiment “cells” were at most 100 nM and 1000 to 5000 nM, respectively.
The corresponding values for `Cc1ccccc1C1NC(=O)c2cc(NC3COC3)cc(NC(=O)c3csc4ccccc34)c21` (stereo not shown) [Compound I-51] are at most 100 nM and below 1000 nM.
In the same order, the values of `N#Cc1cc(NC(=O)N2C[C@@](O)(C(F)(F)F)c3ccccc32)c2c(c1)C(=O)N[C@@H]2c1cc(F)ccc1Cl` (single isomer, unassigned) [Compound I-2564] are at most 100 nM and below 1000 nM.
In the same order, the values of `O=C1N[C@@H](c2cc(F)ccc2Cl)c2c(NC(=O)N3C[C@@](O)(C(F)(F)F)c4cc(F)ccc43)cccc21` (single isomer, unassigned) [Compound I-2518] are at most 100 nM and below 1000 nM.
On to `O=C(Nc1cc(NC2=NCC(C(F)(F)F)O2)cc2c1C(c1cc(F)ccc1Cl)NC2=O)c1cc(F)cc(C(F)(F)F)c1` (stereo not shown) [Compound I-2297], for which the IC50 at H1047R PIK3CA enzyme was at most 100 nM; in “cells” it was 1000 to 5000 nM.
Consider `O=C(Nc1cc(-c2cscn2)cc2c1[C@H](c1cc(F)ccc1Cl)NC2=O)c1cc(F)cc(C(F)(F)F)c1` [Compound I-1084], for which the results for the IC50 against H1047R PIK3CA enzyme and in “cells” were at most 100 nM and below 1000 nM, respectively.
With `O=C(Nc1cc(Nc2ncco2)cc2c1C(c1cc(F)ccc1Cl)NC2=O)c1cc(F)cc(C(F)(F)F)c1` (stereo not shown) [Compound I-961], the results for the IC50 against H1047R PIK3CA enzyme and in the experiment “cells” were at most 100 nM and below 1000 nM, respectively.
In the same order, the values of `O=C1N[C@H](c2cc(F)ccc2Cl)c2c(NC(=O)N3C[C@@](O)(C(F)(F)F)c4cc(F)ccc43)cc(N3CCOC3=O)cc21` (single isomer, unassigned) [Compound I-2673] are at most 100 nM and below 1000 nM.
For the compound `N#Cc1cc(NC(=O)N2CC(O)(C(F)(F)F)c3ccccc32)c2c(c1)C(=O)NC2c1cc(F)ccc1Cl` (stereo not shown) [Compound I-2473], the half-inhibitory concentration (IC50) was at most 100 nM against H1047R PIK3CA enzyme and below 1000 nM in “cells”.
Regarding `O=C(Nc1cc(-c2cnsc2)cc2c1C(c1cc(F)ccc1Cl)NC2=O)c1cc(F)cc(C(F)(F)F)c1` (stereo not shown) [Compound I-1068], the IC50 against H1047R PIK3CA enzyme is at most 100 nM; in the experiment “cells”, below 1000 nM.
As for `O=C1N[C@@H](c2cc(F)ccc2Cl)c2c(NC(=O)N3C[C@@H](O)c4cc(F)ccc43)cc(-c3cnn(C(F)F)c3)cc21` (single isomer, unassigned) [Compound I-2477], the IC50 is at most 100 nM against H1047R PIK3CA enzyme and below 1000 nM in “cells”.
The corresponding values for `O=C1N[C@@H](c2cc(F)ccc2Cl)c2c(NC(=O)N3C[C@@](O)(C(F)F)c4ccccc43)cccc21` (single isomer, unassigned) [Compound I-2487] are at most 100 nM and below 1000 nM.
For the compound `O=C(Nc1cc(-c2nc3ncccc3[nH]2)cc2c1C(c1cc(F)ccc1Cl)NC2=O)c1cc(F)cc(C(F)(F)F)c1` (stereo not shown) [Compound I-1026], the IC50 on H1047R PIK3CA enzyme was at most 100 nM; in the experiment “cells”, below 1000 nM.
For `O=C(Nc1cc(-n2cc(F)cn2)cc2c1C(c1cc(F)ccc1Cl)NC2=O)c1cc(F)cc(C(F)(F)F)c1` (stereo not shown) [Compound I-1146], the half-maximal inhibitory concentration (IC50) is at most 100 nM at H1047R PIK3CA enzyme and below 1000 nM in the experiment “cells”.
With `O=C1N[C@@H](c2cc(F)ccc2Cl)c2c(NC(=O)N3C[C@H](O)c4c(F)cccc43)cccc21` (single isomer, unassigned) [Compound I-2142], the values for the half-maximal inhibitory concentration (IC50) against H1047R PIK3CA enzyme and in the experiment “cells” were at most 100 nM and below 1000 nM, respectively.
The corresponding values for `Cc1nc2ccc(-c3cc(NC(=O)c4cc(F)cc(C(F)(F)F)c4)c4c(c3)C(=O)NC4c3cc(F)ccc3Cl)cn2n1` (stereo not shown) [Compound I-1123] are at most 100 nM and below 1000 nM.
The corresponding values for `Nc1cc(NC(=O)c2cc(F)cc(C(F)(F)F)c2)c2c(c1)C(=O)NC2c1cc(F)ccc1C(F)F` (stereo not shown) [Compound I-289] are at most 100 nM and below 1000 nM.
The corresponding values for `CC(C)(O)c1cc(NC(=O)c2cc(F)cc(C(F)(F)F)c2)c2c(c1)C(=O)N[C@H]2c1cc(F)ccc1Cl` [Compound I-189] are at most 100 nM and below 1000 nM.
Regarding `O=C(Nc1cc(-c2cn3ncnc3cn2)cc2c1C(c1cc(F)ccc1C(F)F)NC2=O)c1cc(F)cc(C(F)(F)F)c1` (stereo not shown) [Compound I-2185], the IC50 on H1047R PIK3CA enzyme is at most 100 nM; in the experiment “cells” it was below 1000 nM.
The corresponding values for `N#CCc1cc(NC(=O)N2C[C@@H](O)c3cc(F)ccc32)c2c(c1)C(=O)N[C@H]2c1cc(F)ccc1Cl` (single isomer, unassigned) [Compound I-2537] are at most 100 nM and below 1000 nM.
In the case of `O=C1N[C@H](c2cc(F)ccc2Cl)c2c(NC(=O)N3C[C@H](O)c4c3ccc(F)c4F)cccc21` (single isomer, unassigned) [Compound I-2310], the figures for the concentration for half-maximal inhibition (IC50) at H1047R PIK3CA enzyme and in the experiment “cells” were at most 100 nM and below 1000 nM, respectively.
`N#Cc1cnn(Cc2cc(NC(=O)N3C[C@](O)(C(F)(F)F)c4cc(F)ccc43)c3c(c2)C(=O)N[C@@H]3c2cc(F)ccc2Cl)c1` (single isomer, unassigned) [Compound I-2669]: the results for the IC50 at H1047R PIK3CA enzyme and in “cells” were at most 100 nM and below 1000 nM, respectively.
In the same order, the values of `O=C1N[C@H](c2cc(F)ccc2C(F)F)c2c(NC(=O)c3nsc4ccccc34)cccc21` [Compound I-167] are at most 100 nM and 1000 to 5000 nM.
For `O=C(Nc1cc(-c2cnc3ncnn3c2)cc2c1[C@H](c1cc(F)ccc1Cl)NC2=O)c1cc(F)cc(C(F)(F)F)c1` [Compound I-1024], the IC50 is at most 100 nM against H1047R PIK3CA enzyme and below 1000 nM in the experiment “cells”.
With `O=C(Nc1cc(-n2ccccc2=O)cc2c1C(c1cc(F)ccc1Cl)NC2=O)c1cc(F)cc(C(F)(F)F)c1` (stereo not shown) [Compound I-2192], the IC50 is at most 100 nM at H1047R PIK3CA enzyme and 1000 to 5000 nM in “cells”.
`O=C1N[C@@H](c2cc(F)ccc2Cl)c2c(NC(=O)N3C[C@](O)(C(F)(F)F)c4cc(F)ccc43)cc(F)cc21` (single isomer, unassigned) [Compound I-2630]: the 50% inhibitory concentration (IC50) against H1047R PIK3CA enzyme is 1000 to 10000 nM; in the experiment “cells”, below 1000 nM.
In the same order, the values of `Cc1nn(C)cc1Nc1cc(NC(=O)c2cc(F)cc(C(F)(F)F)c2)c2c(c1)C(=O)NC2c1cc(F)ccc1Cl` (stereo not shown) [Compound I-924] are at most 100 nM and below 1000 nM.
For `Cc1noc2ncc(-c3cc(NC(=O)c4cc(F)cc(C(F)(F)F)c4)c4c(c3)C(=O)NC4c3cc(F)ccc3Cl)cc12` (stereo not shown) [Compound I-1039], the IC50 against H1047R PIK3CA enzyme is at most 100 nM; in “cells”, below 1000 nM.
The corresponding values for `COc1ccc(NC(=O)c2csc3ccccc23)c2c1C(=O)NC2c1ccccc1C` (stereo not shown) [Compound I-35] are at most 100 nM and 1000 to 5000 nM.
The corresponding values for `O=C1NC(c2cc(F)ccc2Cl)c2c(NC(=O)N3CC(C(F)F)c4ccccc43)cccc21` (mixture of isomers) [Compound I-2246] are at most 100 nM and 1000 to 5000 nM.
Regarding `O=C1N[C@H](c2cc(F)ccc2Cl)c2c(NC(=O)N3C[C@@](O)(C(F)(F)F)c4cc(F)ccc43)cc(-n3nccn3)cc21` (single isomer, unassigned) [Compound I-2569], the half-maximal inhibitory concentration (IC50) was at most 100 nM against H1047R PIK3CA enzyme and below 1000 nM in “cells”.
In the same order, the values of `O=C1N[C@H](c2cc(F)ccc2Cl)c2c(NC(=O)N3C[C@@](O)(C(F)(F)F)c4cc(F)ccc43)cc(N3CCCC3=O)cc21` (single isomer, unassigned) [Compound I-2665] are at most 100 nM and below 1000 nM.
